Test results as given in ChEMBL document CHEMBL3885861, “Open TG-GATES”.

Species: Rattus norvegicus
Test: Open TG-GATES - Regimen: Daily Repeat
Format: toxicity, organism-based, Sprague-Dawley
Parameters: regimen Daily Repeat, gender Male, age 6 weeks
Details: in vivo, po, route gavage; for APTT / Bas / Eos / Fbg / Hb / Ht / Lym / MCH / MCHC / MCV / Mono / Neu / PT / Plat / RBC / Ret / WBC: tissue Blood; for KIDNEY_L / KIDNEY_R / KIDNEY_TOTAL: tissue Kidney; for LIVER: tissue Liver; for A/G / ALP / ALT / AST / BUN / CRE / Ca / Cl / DBIL / GLC / IP / K / LDH / Na / PL / RALB / TBIL / TC / TG / TP / gamma-GTP: tissue Plasma
[1] = 100 mg/kg, 72 h, dose level Middle, time 3 day
[2] = 100 mg/kg, […], dose level Middle, time 7 day
[3] = 100 mg/kg, […], dose level Middle, time 14 day
[4] = 100 mg/kg, […], dose level Middle, time 28 day
[5] = 300 mg/kg, 72 h, dose level High, time 3 day
[6] = 300 mg/kg, […], dose level High, time 7 day
[7] = 300 mg/kg, […], dose level High, time 14 day
[8] = 300 mg/kg, […], dose level High, time 28 day

CCc1oc2ccccc2c1C(=O)c1cc(I)c(O)c(I)c1 [BENZIODARONE]
TERMINAL_BW [1]: 247.4 g
APTT [1]: 17.8 s
Bas [1]: 0%
Eos [1]: 0.8%
Fbg [1]: 228.6 mg/dL
Hb [1]: 13.9 g/dL
Ht [1]: 41.6%
Lym [1]: 80.4%
MCH [1]: 21.3 pg
MCHC [1]: 33.3%
MCV [1]: 63.9 fL
Mono [1]: 5.8%
Neu [1]: 12.4%
PT [1]: 11.4 s
Plat [1]: 123.9 x10_4/uL
RBC [1]: 651.4 x10_4/ul
Ret [1]: 6.4%
WBC [1]: 123 x10_2/uL
KIDNEY_L [1]: 1.1 g
KIDNEY_R [1]: 1.1 g
KIDNEY_TOTAL [1]: 2.3 g
LIVER [1]: 14.4 g
A/G [1]: 1.9
ALP [1]: 1104 IU/L
ALT [1]: 38.2 IU/L
AST [1]: 61 IU/L
BUN [1]: 17.6 mg/dL
CRE [1]: 0.5 mg/dL
Ca [1]: 10.8 mg/dL
Cl [1]: 103.4 meq/L
DBIL [1]: 0.038 mg/dL
GLC [1]: 196 mg/dL
IP [1]: 7.3 mg/dL
K [1]: 4.4 meq/L
LDH [1]: 112.6 IU/L
Na [1]: 140.6 meq/L
PL [1]: 148.4 mg/dL
RALB [1]: 3.8 g/dL
TBIL [1]: 0.3 mg/dL
TC [1]: 79 mg/dL
TG [1]: 66 mg/dL
TP [1]: 5.9 g/dL
gamma-GTP [1]: 2 IU/L
TERMINAL_BW [2]: 273.1 g
TERMINAL_BW [3]: 322 g
TERMINAL_BW [4]: 412 g
APTT [2]: 17.9 s
Bas [2]: 0%
Eos [2]: 1.2%
Fbg [2]: 241 mg/dL
Hb [2]: 14.1 g/dL
Ht [2]: 41.6%
Lym [2]: 78.6%
MCH [2]: 21.1 pg
MCHC [2]: 33.9%
MCV [2]: 62.5 fL
Mono [2]: 7.2%
Neu [2]: 13%
PT [2]: 11.7 s
Plat [2]: 139.6 x10_4/uL
RBC [2]: 666.6 x10_4/ul
Ret [2]: 3.8%
WBC [2]: 95.7 x10_2/uL
APTT [3]: 18.4 s
Bas [3]: 0%
Eos [3]: 0.8%
Fbg [3]: 229.4 mg/dL
Hb [3]: 14.3 g/dL
Ht [3]: 42.5%
Lym [3]: 85%
MCH [3]: 20.4 pg
MCHC [3]: 33.6%
MCV [3]: 60.7 fL
Mono [3]: 5.2%
Neu [3]: 9.2%
PT [3]: 11.8 s
Plat [3]: 122.8 x10_4/uL
RBC [3]: 700.6 x10_4/ul
Ret [3]: 2.5%
WBC [3]: 113.1 x10_2/uL
APTT [4]: 18.9 s
Bas [4]: 0%
Eos [4]: 1.4%
Fbg [4]: 225 mg/dL
Hb [4]: 15.2 g/dL
Ht [4]: 45.2%
Lym [4]: 81.8%
MCH [4]: 19.5 pg
MCHC [4]: 33.7%
MCV [4]: 58 fL
Mono [4]: 6%
Neu [4]: 11.2%
PT [4]: 11.8 s
Plat [4]: 114.5 x10_4/uL
RBC [4]: 778.6 x10_4/ul
Ret [4]: 3.4%
WBC [4]: 123.7 x10_2/uL
KIDNEY_L [2]: 1.2 g
KIDNEY_R [2]: 1.2 g
KIDNEY_TOTAL [2]: 2.4 g
KIDNEY_L [3]: 1.2 g
KIDNEY_R [3]: 1.3 g
KIDNEY_TOTAL [3]: 2.5 g
KIDNEY_L [4]: 1.4 g
KIDNEY_R [4]: 1.5 g
KIDNEY_TOTAL [4]: 2.9 g
LIVER [2]: 15.6 g
LIVER [3]: 16.9 g
LIVER [4]: 21.8 g
A/G [2]: 1.7
ALP [2]: 1041.8 IU/L
ALT [2]: 35 IU/L
AST [2]: 65.2 IU/L
BUN [2]: 20.6 mg/dL
CRE [2]: 0.6 mg/dL
Ca [2]: 11 mg/dL
Cl [2]: 103 meq/L
DBIL [2]: 0.03 mg/dL
GLC [2]: 184 mg/dL
IP [2]: 7.8 mg/dL
K [2]: 4.5 meq/L
LDH [2]: 119.8 IU/L
Na [2]: 140.6 meq/L
PL [2]: 153.4 mg/dL
RALB [2]: 3.8 g/dL
TBIL [2]: 0.3 mg/dL
TC [2]: 78.8 mg/dL
TG [2]: 87.2 mg/dL
TP [2]: 6.1 g/dL
gamma-GTP [2]: 1.6 IU/L
A/G [3]: 2
ALP [3]: 712.4 IU/L
ALT [3]: 34.2 IU/L
AST [3]: 61.6 IU/L
BUN [3]: 20.8 mg/dL
CRE [3]: 0.6 mg/dL
Ca [3]: 10.6 mg/dL
Cl [3]: 105.2 meq/L
DBIL [3]: 0.04 mg/dL
GLC [3]: 199 mg/dL
IP [3]: 6.9 mg/dL
K [3]: 4.4 meq/L
LDH [3]: 105 IU/L
Na [3]: 141 meq/L
PL [3]: 139.6 mg/dL
RALB [3]: 4 g/dL
TBIL [3]: 0.2 mg/dL
TC [3]: 73.8 mg/dL
TG [3]: 67.6 mg/dL
TP [3]: 6 g/dL
gamma-GTP [3]: 1.2 IU/L
A/G [4]: 1.7
ALP [4]: 685.6 IU/L
ALT [4]: 37 IU/L
AST [4]: 59.2 IU/L
BUN [4]: 22 mg/dL
CRE [4]: 0.7 mg/dL
Ca [4]: 10.7 mg/dL
Cl [4]: 103.6 meq/L
DBIL [4]: 0.012 mg/dL
GLC [4]: 195.4 mg/dL
IP [4]: 6.4 mg/dL
K [4]: 4.4 meq/L
LDH [4]: 96.6 IU/L
Na [4]: 140.6 meq/L
PL [4]: 159.6 mg/dL
RALB [4]: 4.1 g/dL
TBIL [4]: 0.3 mg/dL
TC [4]: 86.4 mg/dL
TG [4]: 78.6 mg/dL
TP [4]: 6.5 g/dL
gamma-GTP [4]: 1.2 IU/L
TERMINAL_BW [5]: 237.2 g
APTT [5]: 19.4 s
Bas [5]: 0%
Eos [5]: 1%
Fbg [5]: 220.8 mg/dL
Hb [5]: 13.6 g/dL
Ht [5]: 40.1%
Lym [5]: 70.4%
MCH [5]: 22 pg
MCHC [5]: 33.9%
MCV [5]: 64.7 fL
Mono [5]: 9%
Neu [5]: 20%
PT [5]: 11.8 s
Plat [5]: 119.8 x10_4/uL
RBC [5]: 619.2 x10_4/ul
Ret [5]: 7.3%
WBC [5]: 107.3 x10_2/uL
KIDNEY_L [5]: 1 g
KIDNEY_R [5]: 1 g
KIDNEY_TOTAL [5]: 2.1 g
LIVER [5]: 15.3 g
A/G [5]: 2
ALP [5]: 951 IU/L
ALT [5]: 42.6 IU/L
AST [5]: 69.6 IU/L
BUN [5]: 16.4 mg/dL
CRE [5]: 0.6 mg/dL
Ca [5]: 10.6 mg/dL
Cl [5]: 104.8 meq/L
DBIL [5]: 0.038 mg/dL
GLC [5]: 178.4 mg/dL
IP [5]: 7 mg/dL
K [5]: 4.3 meq/L
LDH [5]: 121.6 IU/L
Na [5]: 141.4 meq/L
PL [5]: 132.4 mg/dL
RALB [5]: 3.8 g/dL
TBIL [5]: 0.3 mg/dL
TC [5]: 74.2 mg/dL
TG [5]: 34.2 mg/dL
TP [5]: 5.7 g/dL
gamma-GTP [5]: 1.4 IU/L
TERMINAL_BW [6]: 277.5 g
TERMINAL_BW [7]: 313.1 g
TERMINAL_BW [8]: 377.5 g
APTT [6]: 18.6 s
Bas [6]: 0%
Eos [6]: 0.6%
Fbg [6]: 217 mg/dL
Hb [6]: 13.9 g/dL
Ht [6]: 40.9%
Lym [6]: 82.2%
MCH [6]: 21.5 pg
MCHC [6]: 33.9%
MCV [6]: 63.5 fL
Mono [6]: 6.8%
Neu [6]: 10.8%
PT [6]: 12 s
Plat [6]: 125.7 x10_4/uL
RBC [6]: 644 x10_4/ul
Ret [6]: 4.3%
WBC [6]: 103.8 x10_2/uL
APTT [7]: 19.3 s
Bas [7]: 0%
Eos [7]: 1%
Fbg [7]: 211.8 mg/dL
Hb [7]: 14.4 g/dL
Ht [7]: 42.6%
Lym [7]: 82.8%
MCH [7]: 21.1 pg
MCHC [7]: 33.9%
MCV [7]: 62.1 fL
Mono [7]: 6%
Neu [7]: 10.8%
PT [7]: 12 s
Plat [7]: 116.1 x10_4/uL
RBC [7]: 685.4 x10_4/ul
Ret [7]: 2.8%
WBC [7]: 121 x10_2/uL
APTT [8]: 20.8 s
Bas [8]: 0%
Eos [8]: 1.6%
Fbg [8]: 223 mg/dL
Hb [8]: 15 g/dL
Ht [8]: 44.3%
Lym [8]: 78.6%
MCH [8]: 19.6 pg
MCHC [8]: 33.9%
MCV [8]: 57.8 fL
Mono [8]: 7.4%
Neu [8]: 12.2%
PT [8]: 12.3 s
Plat [8]: 108.9 x10_4/uL
RBC [8]: 768.2 x10_4/ul
Ret [8]: 2.8%
WBC [8]: 122.3 x10_2/uL
KIDNEY_L [6]: 1.2 g
KIDNEY_R [6]: 1.2 g
KIDNEY_TOTAL [6]: 2.4 g
KIDNEY_L [7]: 1.2 g
KIDNEY_R [7]: 1.3 g
KIDNEY_TOTAL [7]: 2.5 g
KIDNEY_L [8]: 1.4 g
KIDNEY_R [8]: 1.4 g
KIDNEY_TOTAL [8]: 2.8 g
LIVER [6]: 17.5 g
LIVER [7]: 19.2 g
LIVER [8]: 21.4 g
A/G [6]: 2
ALP [6]: 932.2 IU/L
ALT [6]: 35 IU/L
AST [6]: 59.4 IU/L
BUN [6]: 19.2 mg/dL
CRE [6]: 0.6 mg/dL
Ca [6]: 10.9 mg/dL
Cl [6]: 104 meq/L
DBIL [6]: 0.03 mg/dL
GLC [6]: 190.8 mg/dL
IP [6]: 8 mg/dL
K [6]: 4.1 meq/L
LDH [6]: 99 IU/L
Na [6]: 140 meq/L
PL [6]: 133.2 mg/dL
RALB [6]: 3.9 g/dL
TBIL [6]: 0.2 mg/dL
TC [6]: 72.8 mg/dL
TG [6]: 47 mg/dL
TP [6]: 5.9 g/dL
gamma-GTP [6]: 1.6 IU/L
A/G [7]: 1.7
ALP [7]: 877 IU/L
ALT [7]: 36 IU/L
AST [7]: 63.2 IU/L
BUN [7]: 21.4 mg/dL
CRE [7]: 0.6 mg/dL
Ca [7]: 10.6 mg/dL
Cl [7]: 104.4 meq/L
DBIL [7]: 0.038 mg/dL
GLC [7]: 195.8 mg/dL
IP [7]: 6.7 mg/dL
K [7]: 4.1 meq/L
LDH [7]: 95.8 IU/L
Na [7]: 141.4 meq/L
PL [7]: 123.2 mg/dL
RALB [7]: 3.9 g/dL
TBIL [7]: 0.2 mg/dL
TC [7]: 64.2 mg/dL
TG [7]: 48.2 mg/dL
TP [7]: 6.2 g/dL
gamma-GTP [7]: 1.6 IU/L
A/G [8]: 1.8
ALP [8]: 700.6 IU/L
ALT [8]: 39.8 IU/L
AST [8]: 63.4 IU/L
BUN [8]: 23 mg/dL
CRE [8]: 0.7 mg/dL
Ca [8]: 10.5 mg/dL
Cl [8]: 106.4 meq/L
DBIL [8]: 0.022 mg/dL
GLC [8]: 192.6 mg/dL
IP [8]: 6.4 mg/dL
K [8]: 4.1 meq/L
LDH [8]: 106.2 IU/L
Na [8]: 140.8 meq/L
PL [8]: 133 mg/dL
RALB [8]: 4 g/dL
TBIL [8]: 0.2 mg/dL
TC [8]: 72 mg/dL
TG [8]: 43.6 mg/dL
TP [8]: 6.2 g/dL
gamma-GTP [8]: 1.6 IU/L
